Measurements reported in PubChem BioAssay AID330 (DTP/NCI, 2004).
Several values for one entry are separate records, joined by “and”; a condition that tells them apart may be missing. Identical values can stand only once. Inconclusive results and toxic doses are left out. Rule for the calls: active = survival T/C of 150% or more; inactive = T/C below 125% in these data.

Tested on: P388 leukemia ip, CD2F1 mice, survival T/C
Assay: NCI In Vivo Anticancer Drug Screen. Data for tumor model P388 Leukemia (intraperitoneal) in CD2F1 (CDF1) mice
Settings: endpoint: median survival time, higher = longer survival
Summary of the method: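 Mice carrying the transplanted tumor received test compound or vehicle. Survival was recorded in each group, and the value is the treated-group measurement divided by that of the vehicle-treated control group.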

[1] = dose: 50.0 mg/kg/injection, schedule: Q01DX009 (ip), vehicle: suspension in saline
[2] = dose: 50.0 mg/kg/injection, schedule: Q01DX005 (ip), vehicle: saline with Tween-80
[3] = dose: 100.0 mg/kg/injection, schedule: Q01DX005 (ip), vehicle: saline with Tween-80
[4] = dose: 200.0 mg/kg/injection, schedule: Q01DX005 (ip), vehicle: saline with Tween-80

Measured: T/C

O=C1CSc2ccccc2N1
inactive: dose: 6.25 mg/kg/injection, schedule: Q01DX009 (ip), vehicle: suspension in saline 102 % of control | dose: 12.5 mg/kg/injection, schedule: Q01DX009 (ip), vehicle: Klucel (hydroxypropylcellulose) (HPC) 105 % of control | dose: 12.5 mg/kg/injection, schedule: Q01DX009 (ip), vehicle: suspension in saline 104 % of control | dose: 25.0 mg/kg/injection, schedule: Q01DX009 (ip), vehicle: Klucel (hydroxypropylcellulose) (HPC) 97 % of control | dose: 25.0 mg/kg/injection, schedule: Q01DX009 (ip), vehicle: suspension in saline 99 % of control | dose: 50.0 mg/kg/injection, schedule: Q01DX009 (ip), vehicle: Klucel (hydroxypropylcellulose) (HPC) 88 % of control and 95 % of control | [1] 104 % of control | dose: 200.0 mg/kg/injection, schedule: Q01DX009 (ip), vehicle: Klucel (hydroxypropylcellulose) (HPC) 100 % of control | dose: 400.0 mg/kg/injection, schedule: Q01DX009 (ip), vehicle: Klucel (hydroxypropylcellulose) (HPC) 99 % of control

CC(C)(C)C1=NC(c2ccccc2)N2C(c3ccccc3)NC(c3ccccc3)C1C2c1ccccc1 (stereo not given)
inactive: dose: 50.0 mg/kg/injection, schedule: Q01DX009 (ip), vehicle: saline with Tween-80 100 % of control | dose: 100.0 mg/kg/injection, schedule: Q01DX009 (ip), vehicle: saline with Tween-80 93 % of control | dose: 200.0 mg/kg/injection, schedule: Q01DX009 (ip), vehicle: saline with Tween-80 91 % of control

Nc1ncnc2c1nc([Se])n2C1OC(CO)C(O)C1O (stereo not given)
inactive: dose: 25.0 mg/kg/injection, schedule: Q01DX005 (ip), vehicle: other 97 % of control | dose: 100.0 mg/kg/injection, schedule: Q01DX005 (ip), vehicle: other 97 % of control | dose: 200.0 mg/kg/injection, schedule: Q01DX005 (ip), vehicle: other 86 % of control | dose: 400.0 mg/kg/injection, schedule: Q01DX005 (ip), vehicle: other 105 % of control

CCCCCCOC(CN(C)C)C(Cl)(Cl)Cl (stereo not given)
inactive: [1] 97 % of control | dose: 100.0 mg/kg/injection, schedule: Q01DX009 (ip), vehicle: suspension in saline 96 % of control | dose: 400.0 mg/kg/injection, schedule: Q01DX009 (ip), vehicle: suspension in saline 124 % of control

CC(=O)Oc1ccc(OC(C)=O)c2c1CC1OC1C2 (stereo not given)
inactive: dose: 3.13 mg/kg/injection, schedule: Q01DX009 (ip), vehicle: water 100 % of control | dose: 6.25 mg/kg/injection, schedule: Q01DX009 (ip), vehicle: water 98 % of control | dose: 12.5 mg/kg/injection, schedule: Q01DX009 (ip), vehicle: water 100 % of control | dose: 25.0 mg/kg/injection, schedule: Q01DX009 (ip), vehicle: water 90 % of control | dose: 50.0 mg/kg/injection, schedule: Q01DX009 (ip), vehicle: water 100 % of control | dose: 100.0 mg/kg/injection, schedule: Q01DX009 (ip), vehicle: distilled water + Tween-80 111 % of control | dose: 200.0 mg/kg/injection, schedule: Q01DX009 (ip), vehicle: distilled water + Tween-80 111 % of control | dose: 400.0 mg/kg/injection, schedule: Q01DX009 (ip), vehicle: distilled water + Tween-80 100 % of control

CCOC(=O)C1=NCCS1
inactive: [2] 98 % of control | [3] 99 % of control | [4] 99 % of control

COc1ccc2sc3cc(Cl)ccc3c(=O)c2c1
inactive: dose: 1.87 mg/kg/injection, schedule: Q01DX005 (ip), vehicle: saline with Tween-80 89 % of control | dose: 3.75 mg/kg/injection, schedule: Q01DX005 (ip), vehicle: saline with Tween-80 90 % of control | dose: 15.0 mg/kg/injection, schedule: Q01DX005 (ip), vehicle: saline with Tween-80 89 % of control and 90 % of control | dose: 60.0 mg/kg/injection, schedule: Q01DX005 (ip), vehicle: saline with Tween-80 88 % of control

C[CH2][Sn]([CH2]C)([n]1cnc2ccccc21)[n]1cnc2ccccc21
inactive: dose: 1.56 mg/kg/injection, schedule: Q01DX005 (ip), vehicle: Klucel (hydroxypropylcellulose) (HPC) 120 % of control | dose: 3.12 mg/kg/injection, schedule: Q01DX005 (ip), vehicle: Klucel (hydroxypropylcellulose) (HPC) 123 % of control | dose: 6.25 mg/kg/injection, schedule: Q01DX005 (ip), vehicle: Klucel (hydroxypropylcellulose) (HPC) 109 % of control and 122 % of control

NC(=O)N=Nc1ccc(Cl)cc1
inactive: [2] 104 % of control | [3] 101 % of control | [4] 104 % of control
